In publication PMC11678824 (2024) one finds DC50, KD and binding data, which are given here for 3 molecules.

Each structure is given as a SMILES string.

The subject of assay [1] is KRAS (DNA, G4) AGGGCGGTGTGGGAATAGGGAA
Put plainly: fluorescent intercalator displacement (FID). As to conditions: 100 mM K+ (KCl) plus potassium phosphate; 20 mM potassium phosphate, pH 6.8; thiazole orange 3.5 µM displaced; DNA 1 µM.

In assay [2] the test system is ds26 (DNA, duplex) CAATCGGATCGAATTCGATCCGATTG
Description: fluorescent intercalator displacement (FID). Particulars: 100 mM K+ (KCl) plus potassium phosphate; 20 mM potassium phosphate, pH 6.8; thiazole orange 3.5 µM displaced; DNA 1 µM.

Assay [3] has as its system G4 Tel (DNA, G4) AGGGTTAGGGTTAGGGTTAGGG
Description: fluorescent intercalator displacement (FID). As to conditions: 100 mM K+ (KCl) plus potassium phosphate; 20 mM potassium phosphate, pH 6.8; thiazole orange 3.5 µM displaced; DNA 1 µM.

The test system is the same in assay [4]. Description: fluorescence titration (ligand emission). As to conditions: 100 mM K+ (KCl) plus potassium phosphate, 20 mM potassium phosphate, pH 6.8, ligand 2 µM, apparent.
Assay [5] concerns ds26 (DNA, duplex) CAATCGGATCGAATTCGATCCGATTG
Description: fluorescence titration (ligand emission). Particulars: 100 mM K+ (KCl) plus potassium phosphate, 20 mM potassium phosphate, pH 6.8, ligand 2 µM, apparent.

Assay [6] concerns MYC (DNA, G4) TGAGGGTGGGTAGGGTGGGTAA
Description: fluorescent intercalator displacement (FID). Particulars: 100 mM K+ (KCl) plus potassium phosphate; 20 mM potassium phosphate, pH 6.8; thiazole orange 3.5 µM displaced; DNA 1 µM.

Assay [7] deals with KRAS (DNA, G4) AGGGCGGTGTGGGAATAGGGAA
Description: fluorescence titration (ligand emission). As to conditions: 100 mM K+ (KCl) plus potassium phosphate; 20 mM potassium phosphate, pH 6.8; ligand 2 µM; apparent; Hill n = 1.59.

In assay [8] the test system is MYC (DNA, G4) TGAGGGTGGGTAGGGTGGGTAA
Put plainly: fluorescence titration (ligand emission). Particulars: 100 mM K+ (KCl) plus potassium phosphate; 20 mM potassium phosphate, pH 6.8; ligand 2 µM; apparent; Hill n = 3.85.

Assay [9] shares this test system. Put plainly: UV-Vis titration (Soret red shift, hypochromism). Particulars: 100 mM K+ (KCl) plus potassium phosphate; 20 mM potassium phosphate, pH 6.8; ligand 2 µM; up to 2.5 equiv. DNA.
Assay [10] relates to KRAS (DNA, G4) AGGGCGGTGTGGGAATAGGGAA
Description: UV-Vis titration (Soret red shift, hypochromism). As to conditions: 100 mM K+ (KCl) plus potassium phosphate; 20 mM potassium phosphate, pH 6.8; ligand 2 µM; up to 2.5 equiv. DNA.

The subject of assay [11] is ds26 (DNA, duplex) CAATCGGATCGAATTCGATCCGATTG
Put plainly: UV-Vis titration (Soret red shift, hypochromism). As to conditions: 100 mM K+ (KCl) plus potassium phosphate; 20 mM potassium phosphate, pH 6.8; ligand 2 µM; up to 2.5 equiv. DNA.

In assay [12] the test system is G4 Tel (DNA, G4) AGGGTTAGGGTTAGGGTTAGGG
Description: UV-Vis titration (Soret red shift, hypochromism). As to conditions: 100 mM K+ (KCl) plus potassium phosphate; 20 mM potassium phosphate, pH 6.8; ligand 2 µM; up to 2.5 equiv. DNA.

Consider `C[n+]1ccc(-c2c3nc(c(-c4cc[n+](C)cc4)c4ccc([n-]4)c(-c4cc[n+](C)cc4)c4nc(c(-c5cc[n+](C)cc5)c5ccc2[n-]5)C=C4)C=C3)cc1.[Ag+2]`, for which the DC50 was found to be 0.28 ± 0.01 µM in assay [1], 2.00 ± 0.37 µM in assay [2], 1.12 ± 0.27 µM in [3] and 0.18 ± 0.03 µM in assay [6]. The KD worked out at 0.63 ± 0.29 µM in assay [4] (Hill n = 1.0) and 0.01 ± 0.007 µM in assay [5] (Hill n = 0.49).

As for `C[n+]1ccc(-c2c3nc(c(-c4cc[n+](C)cc4)c4ccc([n-]4)c(-c4cc[n+](C)cc4)c4nc(c(-c5cc[n+](C)cc5)c5ccc2[n-]5)C=C4)C=C3)cc1.[Zn+2]`, the KD in assay [7] was 2.72 ± 0.42 µM; in [4] (Hill n = 1.35) it was 1.30 ± 0.02 µM; in assay [5] (Hill n = 0.67), 2.69 ± 0.02 µM; in assay [8] it was 1.32 ± 0.13 µM. In addition, the DC50 came to 0.37 ± 0.01 µM in assay [1], 0.65 ± 0.04 µM in assay [2], 0.34 ± 0.02 µM in [3] and 0.20 ± 0.02 µM in assay [6].

As to `C[n+]1ccc(-c2c3nc(c(-c4cc[n+](C)cc4)c4ccc([nH]4)c(-c4cc[n+](C)cc4)c4nc(c(-c5cc[n+](C)cc5)c5ccc2[nH]5)C=C4)C=C3)cc1`, the binding result in assay [9], in assay [10], in assay [11] and in [12] was “yes” throughout.
